Data on eight compounds can be found in patent publication US11358944B2, “Anxiolytic deuterated compound and medical use thereof” (BEIJING JUNKE HUAYUAN MED TECH CO., LTD., priority 2017, dated 2022).

One data set has as its system Wistar rats. Briefly: elevated plus-maze test on rats (anxiolytic effect). It counts as in vivo, rat. Conditions: 30 min after administration, within 5 minutes. The procedure: The anxiolytic effect of the compounds was evaluated using an elevated plus-maze test on rats.
The elevated plus-maze consists of two closed arms and two open arms cross each other with length, width and height respectively of 50 cm, 10 cm and 40 cm.
The central connecting area is 10 cm (length)×10 cm (width), and the maze is 50 cm above the ground, placed in the darker side of the fluorescent lamp and 1 meter away from the lamp. Wistar rats were randomly divided into groups with 5 per group, and the rats were fasted but not deprived of water for 12 hours; The test compound was formulated with 0.5% sodium carboxymethylcellulose into a suspension of certain concentration for intragastric administration. Thirty minutes after administration, the rats were placed in the central connecting area of the maze with the heads facing the direction of the open arms. Then the dwell time of the animals in the open arms within 5 minutes was recorded.

Data set [1] can be described thus: subacute toxicity, 7-day intragastric administration: blood biochemical and hematological indicators. The settings on record: 60 mg/kg intragastric once a day for 7 days; for plasma ALT compared with control group (Solvent group) / plasma AST compared with control group (Solvent group): SD rats, result in words; for ALT / AST: male Sprague-Dawley rats. It counts as in vivo, rat. The method, then:
(§1) Male Sprague-Dawley rats (220-240 g), were randomly divided into groups with 5 per group; The test compound was formulated with 0.5% sodium carboxymethylcellulose into a preparation of a concentration of 60 mg/kg for intragastric administration once a day and continuously for 7 days. After the last administration, the SD rats were fasted but not deprived of water for 12 hours, and anesthetized. Their blood samples were obtained from the abdominal aortas and made to serum samples for determination of blood biochemical indicators and immunological indicators; EDTA Anticoagulated blood was prepared for general blood routine determination. Referring to the method of the literature (En Li, et al. Effect of buagafuran on liver microsomal cytochrome P450 in rats. J Asian Natural Products Research. 2010; 12: 371-381.), liver microsome was prepared from the liver taken, and the activity of CYP isoenzyme was determined using a probe substrate. The relative enzymatic activity of the test compound was calculated by taking the activity of the solvent group as 1.

The subject of a further data set is CYP1A1. Nature of the data set: induction of liver metabolic enzyme, liver microsome probe substrate activity after 7-day administration. It counts as in vivo, rat. The settings on record: 60 mg/kg intragastric once a day for 7 days; for Relative enzyme activity CYP1A1: rat liver microsome, solvent group = 1; for activity of metabolic enzyme CYP1A1 in the liver compared with solvent group: result in words. The method, then: as §1
(Microsomes from liver hold many membrane-bound enzymes, among them those of drug oxidation.)

The test system of data set [2] is CYP2E1. The data set is described as above. Type of data set: in vivo, rat. The settings on record: 60 mg/kg intragastric once a day for 7 days; for Relative enzyme activity CYP2E1: rat liver microsome, solvent group = 1; for activity of metabolic enzyme CYP2E1 in the liver compared with solvent group: result in words. The procedure:
as §1

The conditions of data set [3]: background statement; cited from earlier work.
For data set [4] the following is noted: background statement; cited from earlier work. This is another data set of the same source.
In a further data set the test system is CYP1A2. The settings on record: literature, rats; cited from earlier work.
Data set [5] has as its system CYP2E1. The settings on record: literature, rats; cited from earlier work.

`[2H]C([2H])([2H])C([2H])([2H])C([2H])([2H])C([2H])([2H])C1=CCC[C@@]2(C)CC[C@@H]3C[C@]12OC3(C)C` [I-5, d9-BAF]: the “dwell time in the open arms” value in the data set on Wistar rats (1 mg/kg intragastric) was determined as 72.0 ± 15.8 s. The “dwell time in the open arms” value with Wistar rats (2 mg/kg intragastric) is 71.2 ± 15.3 s. The “dwell time in the open arms” value with Wistar rats (4 mg/kg intragastric) amounted to 76.5 ± 16.0 s. Further, in data set [1], the “plasma ALT compared with control group (Solvent group)” value is listed as “no significant differences”, the “plasma AST compared with control group (Solvent group)” value is “no significant differences”, the ALT is 56.6 U/L and the AST was found to be 137.2 U/L. Moreover, in the data set with CYP1A1, the “Relative enzyme activity CYP1A1” value is 1.3 and the “activity of metabolic enzyme CYP1A1 in the liver compared with solvent group” value was “not significantly different”. Moreover, in the data set with CYP2E1 [2], the “Relative enzyme activity CYP2E1” value is on record as 1.2 and the “activity of metabolic enzyme CYP2E1 in the liver compared with solvent group” value is “not significantly different”.
On to `[2H]C1=C(C([2H])([2H])C([2H])([2H])C([2H])([2H])C([2H])([2H])[2H])[C@@]23C[C@@H](CC[C@]2(C)CC1)C(C)(C)O3` [I-6, d10-BAF], for which the “dwell time in the open arms” value with Wistar rats (1 mg/kg intragastric) came out at 73.3 ± 17.6 s; with Wistar rats (2 mg/kg intragastric), 71.4 ± 19.1 s; in the data set with Wistar rats (4 mg/kg intragastric) it was 66.3 ± 19.6 s.
Take `[2H]C1([2H])C=C(CCCC)[C@]23OC(C)(C)[C@H](CC[C@]2(C)C1)C3([2H])[2H]` [I-3, d4-BAF]: the entries for the “dwell time in the open arms” value in the data set on Wistar rats (1 mg/kg intragastric), with Wistar rats (2 mg/kg intragastric) and in the data set on Wistar rats (4 mg/kg intragastric) were 52.5 ± 26.0 s, 67.2 ± 22.0 s and 42.7 ± 25.1 s, respectively.
Turning to `[2H]C1=C(C([2H])([2H])C([2H])([2H])C([2H])([2H])C([2H])([2H])[2H])[C@@]23C[C@@H](CC[C@]2(C)CC1([2H])[2H])C(C)(C)O3` [I-8, d12-BAF], the results for the “dwell time in the open arms” value with Wistar rats (1 mg/kg intragastric), in the data set on Wistar rats (2 mg/kg intragastric) and in the data set with Wistar rats (4 mg/kg intragastric) were 70.7 ± 23.2 s, 76.9 ± 14.4 s and 72.3 ± 17.8 s, respectively.
Turning to `[2H]C1([2H])C=C(C([2H])([2H])C([2H])([2H])C([2H])([2H])C([2H])([2H])[2H])[C@@]23C[C@@H](CC[C@]2(C)C1)C(C)(C)O3` [I-7, d11-BAF], the “dwell time in the open arms” value in the data set with Wistar rats (1 mg/kg intragastric) is 77.5 ± 23.3 s. The “dwell time in the open arms” value in the data set with Wistar rats (2 mg/kg intragastric) is 72.6 ± 18.6 s. The “dwell time in the open arms” value in the data set on Wistar rats (4 mg/kg intragastric) turned out to be 73.8 ± 11.0 s. In data set [1], the “plasma ALT compared with control group (Solvent group)” value is reported as “no significant differences”, the “plasma AST compared with control group (Solvent group)” value is on record as “no significant differences”, the ALT is given as 48.7 U/L and the AST stood at 107.7 U/L. Besides, in the data set on CYP1A1, the “Relative enzyme activity CYP1A1” value was determined as 1.1 and the “activity of metabolic enzyme CYP1A1 in the liver compared with solvent group” value is “not significantly different”. In the data set with CYP2E1 [2], the “Relative enzyme activity CYP2E1” value is given as 0.9 and the “activity of metabolic enzyme CYP2E1 in the liver compared with solvent group” value was “not significantly different”.
Regarding `[2H]C1=C(CCCC)[C@@]23C[C@@H](CC[C@]2(C)CC1([2H])[2H])C(C)(C)O3` [I-2, d3-BAF], the “dwell time in the open arms” value in the data set with Wistar rats (1 mg/kg intragastric) was 45.6 ± 19.1 s. In addition, in the data set on Wistar rats (2 mg/kg intragastric), the “dwell time in the open arms” value is 69.7 ± 29.8 s. In addition, the “dwell time in the open arms” value in the data set on Wistar rats (4 mg/kg intragastric) was determined as 39.0 ± 25.7 s. In addition, in data set [1], the “plasma ALT compared with control group (Solvent group)” value was “no significant differences”, the “plasma AST compared with control group (Solvent group)” value is given as “no significant differences”, the ALT is 74.0 U/L and the AST came out at 115.4 U/L. In the data set with CYP1A1, the “Relative enzyme activity CYP1A1” value was found to be 1.4 and the “activity of metabolic enzyme CYP1A1 in the liver compared with solvent group” value was “not significantly different”. Moreover, in the data set on CYP2E1 [2], the “Relative enzyme activity CYP2E1” value came out at 1.0 and the “activity of metabolic enzyme CYP2E1 in the liver compared with solvent group” value is reported as “not significantly different”.
With `[2H]C1([2H])C=C(CCCC)[C@@]23C[C@@H](CC[C@]2(C)C1)C(C)(C)O3` [I-1, d2-BAF], the “dwell time in the open arms” value in the data set on Wistar rats (1 mg/kg intragastric) stood at 48.6 ± 21.7 s. In addition, the “dwell time in the open arms” value in the data set on Wistar rats (2 mg/kg intragastric) came out at 68.4 ± 30.8 s. In addition, the “dwell time in the open arms” value in the data set with Wistar rats (4 mg/kg intragastric) stood at 47.5 ± 23.6 s. Further, in data set [1], the “plasma ALT compared with control group (Solvent group)” value is “no significant differences”, the “plasma AST compared with control group (Solvent group)” value is “no significant differences”, the ALT turned out to be 116.1 U/L and the AST is listed as 163.9 U/L. In addition, in the data set on CYP1A1, the “Relative enzyme activity CYP1A1” value was 1.7 and the “activity of metabolic enzyme CYP1A1 in the liver compared with solvent group” value is “not significantly different”. In addition, in the data set with CYP2E1 [2], the “Relative enzyme activity CYP2E1” value came to 1.2 and the “activity of metabolic enzyme CYP2E1 in the liver compared with solvent group” value is “not significantly different”.
As for `CCCCC1=CCC[C@@]2(C)CC[C@@H]3C[C@]12OC3(C)C` [BAF, 4-butyl-α-agarofuran, reference compound], the “dwell time in the open arms” value with Wistar rats (1 mg/kg intragastric) amounted to 26.7 ± 27.0 s. In addition, in the data set on Wistar rats (2 mg/kg intragastric), the “dwell time in the open arms” value stood at 45.2 ± 39.7 s. The “dwell time in the open arms” value in the data set with Wistar rats (4 mg/kg intragastric) was determined as 69.0 ± 49.0 s. For the same compound, in data set [1], the “plasma ALT compared with control group (Solvent group)” value is “significantly increased”, the “plasma AST compared with control group (Solvent group)” value is “significantly increased”, the ALT was found to be 189.0 U/L and the AST worked out at 258.7 U/L. In addition, in the data set on CYP1A1, the “Relative enzyme activity CYP1A1” value turned out to be 3.8 and the “activity of metabolic enzyme CYP1A1 in the liver compared with solvent group” value is “significantly increased”. For the same compound, in the data set with CYP2E1 [2], the “Relative enzyme activity CYP2E1” value turned out to be 1.7 and the “activity of metabolic enzyme CYP2E1 in the liver compared with solvent group” value is reported as “significantly increased”. Further, the anxiolytic activity entry in data set [3] is listed as “significant anxiolytic activity”. Moreover, the oral bioavailability result in data set [4] was “low”. Moreover, the “induction effect on liver cytochrome P450 metabolic enzyme CYP1A2” value in the data set with CYP1A2 is on record as “significant induction effect”. Further, the “induction effect on liver cytochrome P450 metabolic enzyme CYP2E1” value in the data set on CYP2E1 [5] is recorded as “significant induction effect”.
